Reference: article PMC11073699, “Odorant receptors for floral- and plant-derived volatiles in the yellow fever mosquito, Aedes aegypti (Diptera: Culicidae)” (PLOS ONE, 2024)
“And” between values parts separate entries of the source, which are not always exact repeats. Identical values can stand only once.

Key:
Assay type in all cases: cell-based
AaegOR13 = target: T1, AaegOR13 (Aedes aegypti, UniProt Q16Z13); assay: Two-electrode voltage clamp of Xenopus laevis oocytes expressing AaegOR13/Orco (blends, unitary compounds, concentration-response); conditions: unitary compounds
T1 sequence (Q16Z13 1-389): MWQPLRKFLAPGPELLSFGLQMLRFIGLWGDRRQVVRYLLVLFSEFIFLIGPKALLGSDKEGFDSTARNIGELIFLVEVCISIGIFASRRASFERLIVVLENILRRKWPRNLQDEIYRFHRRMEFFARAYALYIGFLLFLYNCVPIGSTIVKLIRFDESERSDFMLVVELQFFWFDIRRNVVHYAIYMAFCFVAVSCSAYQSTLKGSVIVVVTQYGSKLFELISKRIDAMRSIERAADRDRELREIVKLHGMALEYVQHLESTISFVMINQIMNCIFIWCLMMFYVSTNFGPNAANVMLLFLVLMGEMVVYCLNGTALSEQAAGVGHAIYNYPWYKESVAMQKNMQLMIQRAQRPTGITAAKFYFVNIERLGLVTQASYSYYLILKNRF
T1 sequence (Q178U6 1-478 partner): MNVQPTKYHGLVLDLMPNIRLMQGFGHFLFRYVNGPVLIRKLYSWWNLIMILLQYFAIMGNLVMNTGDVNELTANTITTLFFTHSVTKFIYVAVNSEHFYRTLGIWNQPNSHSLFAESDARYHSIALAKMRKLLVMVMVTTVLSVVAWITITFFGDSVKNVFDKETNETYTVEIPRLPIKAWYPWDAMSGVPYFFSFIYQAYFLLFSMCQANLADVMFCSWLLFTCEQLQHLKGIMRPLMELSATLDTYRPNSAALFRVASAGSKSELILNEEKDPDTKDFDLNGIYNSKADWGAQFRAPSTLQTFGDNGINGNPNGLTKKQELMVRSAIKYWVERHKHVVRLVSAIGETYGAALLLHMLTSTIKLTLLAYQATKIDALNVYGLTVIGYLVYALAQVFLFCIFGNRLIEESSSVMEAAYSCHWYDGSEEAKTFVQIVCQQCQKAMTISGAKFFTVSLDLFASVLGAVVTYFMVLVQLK
Excerpt: (§1) The coding regions of ten AaegOR genes of interest (S3 File) and AaegOrco were synthesized by Twist Bioscience (San Francisco, CA, USA) and cloned into the pENTR plasmid. The Gateway LR directional cloning system (Invitrogen Corp., Carlsbad, CA, USA) was utilized to subclone AaegOR coding regions into the pSP64t-RFA oocyte expression plasmid. Plasmids were purified using the GeneJet Plasmid Miniprep Kit (ThermoFisher Scientific, Waltham, MA, USA). Purified plasmids were sequenced in both directions to confirm coding regions.
(§2) Chemical compounds (S6 File) used in the deorphanization of AaegORs were purchased from Acros Organics (Morris, NJ, USA), Alfa Aesar (Ward Hill, MA, USA), and ThermoFisher Scientific (Waltham, MA, USA) at the highest purity available. Compounds were stored as 1M stocks in 100% DMSO. Serial dilutions of each compound were prepared in 10% DMSO and blended by chemical class.
(§3) pSP64t-RFA: AaegOR clones were linearized using Xbal, and cRNAs were synthesized using the mMESSAGE mMACHINE ® SP6 kit (Life Technologies, Carlsbad, CA, USA). Xenopus laevis stage V-VII oocytes purchased from Xenopus1 (Dexter, MI, USA) were stored at 18°C in Incubation medium (ND96 96 with 5% dialyzed horse serum, 50μg/mL gentamycin, 100μg/mL streptomycin, 100μg/mL penicillin, and 550μg/mL sodium pyruvate). 30nL of cRNA was injected into multiple oocytes using a microinjection syringe pump (World Precision Instruments, Sarasota, FL, USA) maintained at 18°C for 48–72 hrs. Odorant blends were perfused across individual oocytes for 10–15 seconds, held at a resting membrane potential of -80 mV using an OC-725C oocyte clamp (Warner Instruments, LLC, Hamden, CT, USA). Induced currents were measured indirectly using the two-electrode voltage clamp technique (TEVC). Following each stimulus, currents were allowed to return to baseline before further stimulation. Data was captured using the Digidata 1550 B digitizer and PClamp10 software (Molecular Devices, San Jose, CA, USA). Concentration-response curves were generated by perfusing unitary odorants over oocytes at increasing concentrations from [10^-3M] to [10^-9M]. Data were analyzed using GraphPad Prism 8 (GraphPad Software Inc., La Jolla, CA, USA). At least two biological replicates were conducted at each concentration and for each compound. Data for at least seven oocytes responding to each compound was analyzed (S7 File).

AaegOR28 = target: T2, AaegOR28 (Aedes aegypti, UniProt Q0IGE1); assay: Two-electrode voltage clamp of Xenopus laevis oocytes expressing AaegOR28/Orco (blends, unitary compounds, concentration-response); conditions: for Normalized response, Average, Alcohols 3 unitary compounds / Raw Data (Responses in nA), Alcohols 3 unitary compounds / Normalized response, Alcohols 3 unitary compounds / Raw Data (Responses in nA), concentration-response: AaegOR28; for Normalized response, Average, Alcohols 3 unitary compounds / Raw Data (Responses in nA), Alcohols 3 unitary compounds / Normalized response, Alcohols 3 unitary compounds: compounds of blend Alcohols 3; for Normalized response, Average, Alcohols 3 unitary compounds: average of 10 oocytes; for Raw Data (Responses in nA), Alcohols 3 unitary compounds: individual oocytes 1-10; for Normalized response, Alcohols 3 unitary compounds: individual oocytes 1-10, normalized to largest response of each oocyte; for Raw Data (Responses in nA), concentration-response: individual oocytes 1-8
T2 sequence (Q0IGE1 1-394): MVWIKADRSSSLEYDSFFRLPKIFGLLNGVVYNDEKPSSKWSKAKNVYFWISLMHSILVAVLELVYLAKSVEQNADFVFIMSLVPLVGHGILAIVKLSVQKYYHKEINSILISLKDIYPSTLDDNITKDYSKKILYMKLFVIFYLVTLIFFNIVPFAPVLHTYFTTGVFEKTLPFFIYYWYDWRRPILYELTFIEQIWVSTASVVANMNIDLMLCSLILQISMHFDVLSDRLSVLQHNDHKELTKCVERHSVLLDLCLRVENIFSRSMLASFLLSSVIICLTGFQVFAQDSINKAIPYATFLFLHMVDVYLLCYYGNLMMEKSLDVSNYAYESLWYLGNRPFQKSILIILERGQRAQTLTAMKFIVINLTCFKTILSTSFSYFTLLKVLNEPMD
T2 sequence (Q178U6 1-478 partner): T1 sequence (Q178U6 1-478 partner)
Excerpt: as §1, §2, §3

AaegOR15 = target: T3, AaegOR15 (Aedes aegypti, UniProt A0A6B9QIR2); assay: Two-electrode voltage clamp of Xenopus laevis oocytes expressing AaegOR15/Orco (blends, unitary compounds, concentration-response); conditions: unitary compounds of Alcohols 2; for Normalized response, compounds of blend Alcohols 2, Average: average of 10 oocytes, 1-hexanol = 100; for Raw data (Responses in nA), compounds of blend Alcohols 2: individual oocytes 1-10 (replicates); for Normalized response, compounds of blend Alcohols 2: individual oocytes 1-10, normalized to the largest response of each oocyte (1-hexanol = 100)
T3 sequence (A0A6B9QIR2 1-390): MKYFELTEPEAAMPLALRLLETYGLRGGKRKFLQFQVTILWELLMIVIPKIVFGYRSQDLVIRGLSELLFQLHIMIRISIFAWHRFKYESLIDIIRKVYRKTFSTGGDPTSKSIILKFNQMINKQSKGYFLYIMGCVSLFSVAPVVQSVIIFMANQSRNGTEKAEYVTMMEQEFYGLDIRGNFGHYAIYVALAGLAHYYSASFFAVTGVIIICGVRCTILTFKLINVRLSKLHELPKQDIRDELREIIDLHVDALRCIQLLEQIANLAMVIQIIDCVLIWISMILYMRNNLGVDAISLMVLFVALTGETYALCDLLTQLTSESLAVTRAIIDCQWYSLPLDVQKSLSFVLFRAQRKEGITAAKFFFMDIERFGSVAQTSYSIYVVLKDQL
T3 sequence (Q178U6 1-478 partner): T1 sequence (Q178U6 1-478 partner)
Excerpt: as §1, §2, §3

AaegOR55 = target: T4, AaegOR55 (Aedes aegypti, UniProt Q16T12); assay: Two-electrode voltage clamp of Xenopus laevis oocytes expressing AaegOR55/Orco (blends, unitary compounds, concentration-response); conditions: AaegOR55, compounds of blend Indoles 1
T4 sequence (Q16T12 10-392): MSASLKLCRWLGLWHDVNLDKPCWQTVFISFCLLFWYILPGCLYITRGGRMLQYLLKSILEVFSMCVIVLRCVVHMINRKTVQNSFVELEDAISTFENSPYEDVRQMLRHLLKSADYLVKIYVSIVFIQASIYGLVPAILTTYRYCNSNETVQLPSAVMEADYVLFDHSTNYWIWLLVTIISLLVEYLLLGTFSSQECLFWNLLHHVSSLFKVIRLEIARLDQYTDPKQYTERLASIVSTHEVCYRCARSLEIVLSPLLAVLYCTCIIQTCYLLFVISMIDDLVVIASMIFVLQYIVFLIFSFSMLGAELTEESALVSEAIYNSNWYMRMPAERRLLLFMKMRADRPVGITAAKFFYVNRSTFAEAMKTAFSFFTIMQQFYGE
T4 sequence (Q178U6 1-478 partner): T1 sequence (Q178U6 1-478 partner)
Excerpt: as §1, §2, §3

| Compound | Raw data (Responses in nA), unitary compounds of Indoles 1, Alcohols 1, Alcohols 3 (AaegOR13; individual oocytes 1-7) | Raw Data (Responses in nA), Alcohols 3 unitary compounds (AaegOR28) | Raw data (Responses in nA), compounds of blend Alcohols 2 (AaegOR15) | other results |
| --- | --- | --- | --- | --- |
| C=CC(C)(O)CC/C=C(\C)CC/C=C(\C)CCC=C(C)C (stereo not shown) [Geranyl Linalool] | 0.0 nA | 0 nA | 0.0 nA (7×) and 10.0 nA (3×) | Normalized response, unitary compounds, Average (AaegOR13; average of oocytes 1-7): 0.0; Normalized response, unitary compounds of Indoles 1, Alcohols 1, Alcohols 3 (AaegOR13; normalized per oocyte, individual oocytes 1-7): 0.0; Normalized response, Average, Alcohols 3 unitary compounds (AaegOR28): 0.0; Normalized response, Alcohols 3 unitary compounds (AaegOR28): 0.0 (9×) and 0; Normalized response, compounds of blend Alcohols 2, Average (AaegOR15): 0.4; Normalized response, compounds of blend Alcohols 2 (AaegOR15): 0.0 (7×) and 1.3 and 0.9 and 1.7 |
| C=C[C@](C)(O)CCC=C(C)C [(R)-(-)-linalool] |  | 10 nA (5×) and 5 nA (4×) and 20 nA | 0.0 nA (3×) and 10.0 nA (2×) and 20.0 nA and 25.0 nA and 40.0 nA (2×) and 15.0 nA | Normalized response, Average, Alcohols 3 unitary compounds (AaegOR28): 25.1; Normalized response, Alcohols 3 unitary compounds (AaegOR28): 33.3 and 28.6 and 50.0 and 25.0 and 20.0 and 16.7 and 12.5 and 22.2 (2×) and 20; Normalized response, compounds of blend Alcohols 2, Average (AaegOR15): 2.4; Normalized response, compounds of blend Alcohols 2 (AaegOR15): 0.0 (3×) and 1.4 and 2.6 and 3.7 (2×) and 1.7 and 5.4 and 5.5 |
| isoeugenol | 0.0 nA and 110.0 nA and 25.0 nA and 40.0 nA and 35.0 nA (2×) and 15.0 nA | 0 nA | 0.0 nA (5×) and 10.0 nA (2×) and 20.0 nA (3×) |  |
| CC12CCC(CC1)C(C)(C)O2 [1,8-cineole] | 0.0 nA | 5 nA and 0 nA (9×) | 0.0 nA (3×) and 5.0 nA (3×) and 10.0 nA (4×) |  |
| C=CCc1ccc(O)c(OC)c1 [Eugenol] | 20.0 nA and 430.0 nA and 105.0 nA and 220.0 nA and 160.0 nA (2×) and 100.0 nA | 0 nA | 0.0 nA (2×) and 5.0 nA and 10.0 nA (3×) and 15.0 nA (2×) and 30.0 nA and 20.0 nA |  |
| C=CC1(C)CCC(C(C)(C)O)O1 (stereo not shown) [Linalool Oxide] |  | 0 nA | 0.0 nA (6×) and 10.0 nA (2×) and 5.0 nA (2×) |  |
| COC(=O)c1c[nH]c2ccccc12 [methylindole-3-carboxylate] |  |  |  | Normalized response, Average, Indoles 1 unitary compounds (AaegOR55; average of 7 oocytes): 5.2; Raw Data (Responses in nA), Indoles 1 unitary compounds (AaegOR55; individual oocytes (Oocyte 1-7)): 20.0 nA and 10.0 nA (5×) and 15.0 nA; Normalized response, Indoles 1 unitary compounds (AaegOR55; individual oocytes (Oocyte 1-7), normalized to the strongest compound per oocyte): 8.5 and 7.1 and 4.0 and 3.3 and 5.4 and 4.9 and 3.4 |
| CCC(C)(O)CCCC(C)C (stereo not shown) [tetrahydrolinalool, Tetrahydrolinalool] | 0.0 nA | 30 nA (2×) and 25 nA and 35 nA and 20 nA (2×) and 50 nA and 40 nA and 45 nA and 90 nA | 0.0 nA (3×) and 20.0 nA (4×) and 40.0 nA and 10.0 nA and 5.0 nA | EC50 (AaegOR28; AaegOR28/Orco expressing oocytes, TEVC, concentration-response of normalized current): 44.1 µM; Raw Data (Responses in nA), concentration-response (AaegOR28; concentration 1e-6): 5 nA (4×) and 0 nA (2×) and 10 nA and 20 nA; Raw Data (Responses in nA), concentration-response (AaegOR28; concentration 5e-6): 30 nA and 10 nA (2×) and 20 nA (4×) and 50 nA; Raw Data (Responses in nA), concentration-response (AaegOR28; concentration 1e-5): 40 nA (3×) and 30 nA (2×) and 50 nA and 45 nA and 95 nA; Raw Data (Responses in nA), concentration-response (AaegOR28; concentration 5e-5): 150 nA and 200 nA and 70 nA and 230 nA and 220 nA and 90 nA and 180 nA and 260 nA; Raw Data (Responses in nA), concentration-response (AaegOR28; concentration 0.0001): 290 nA and 320 nA and 140 nA and 330 nA and 400 nA and 100 nA and 220 nA and 310 nA; Raw Data (Responses in nA), concentration-response (AaegOR28; concentration 0.0005): 380 nA and 530 nA and 180 nA and 400 nA and 480 nA and 105 nA and 230 nA and 340 nA; Raw Data (Responses in nA), concentration-response (AaegOR28; concentration 0.001): 400 nA and 440 nA (2×) and 200 nA and 500 nA and 110 nA and 350 nA and 300 nA |
| CC(C)C12CCC(C)(CC1)O2 [1,4-Cineole] | 0.0 nA | 0 nA | 0.0 nA (6×) and 10.0 nA (4×) |  |
